From US7994185B2, “Benzene sulfonamide thiazole and oxazole compounds” (Glaxo Smith Kline LLC, priority 2008, dated 2011)
Counter-ions that a name gives are not always drawn. Like-named read-outs stand apart in the source and are kept apart here.

Columns and labels:
[1] = target: T1, BRAFV600E full-length (amino acids 2-766) (Homo sapiens, UniProt P15056, V600E); test: B-Raf Accelerated MEK ATPase assay (BRAMA); format: biochemical; conditions: categorized
T1 construct: His6-tagged BRAFV600E full-length (amino acids 2-766); His6; made in house; host or cells: baculovirus expression system (insect cells)
T1 sequence (P15056 2-766 V600E): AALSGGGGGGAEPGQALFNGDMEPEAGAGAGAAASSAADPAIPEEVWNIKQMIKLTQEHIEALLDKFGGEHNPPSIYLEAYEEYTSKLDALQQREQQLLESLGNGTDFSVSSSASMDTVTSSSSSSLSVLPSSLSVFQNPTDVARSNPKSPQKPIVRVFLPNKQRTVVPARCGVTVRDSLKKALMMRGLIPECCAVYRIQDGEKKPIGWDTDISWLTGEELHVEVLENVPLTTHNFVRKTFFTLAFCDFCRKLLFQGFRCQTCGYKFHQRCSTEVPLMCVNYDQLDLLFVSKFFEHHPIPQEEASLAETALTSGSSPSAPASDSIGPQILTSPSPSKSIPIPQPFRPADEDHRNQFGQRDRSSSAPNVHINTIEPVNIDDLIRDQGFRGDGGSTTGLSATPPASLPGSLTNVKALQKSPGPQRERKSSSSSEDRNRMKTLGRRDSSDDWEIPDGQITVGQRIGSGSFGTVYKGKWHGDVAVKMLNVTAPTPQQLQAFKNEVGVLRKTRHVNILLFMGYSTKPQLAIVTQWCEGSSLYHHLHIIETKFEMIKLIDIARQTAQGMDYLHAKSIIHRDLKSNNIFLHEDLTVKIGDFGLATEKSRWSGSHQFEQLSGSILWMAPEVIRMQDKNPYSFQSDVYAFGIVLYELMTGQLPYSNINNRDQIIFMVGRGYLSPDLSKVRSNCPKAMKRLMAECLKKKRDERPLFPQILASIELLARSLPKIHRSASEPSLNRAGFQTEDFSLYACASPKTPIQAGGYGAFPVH
Outline: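 Coupled-enzyme readout: ADP generated by MEK-mediated ATP hydrolysis, uncoupled from ERK phosphorylation, is linked to NADH oxidation through pyruvate kinase and lactate dehydrogenase.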

[2] = tested on: Human colon tumor cells (Colo205); test: Cell growth inhibition assay (CellTiter-Glo), Colo205; format: cell-based
Outline: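 Colo205 (and SK-MEL-28) cells in RPMI with 10% FBS were exposed to 10-point 1:3 serial dilutions of compound at 0.2% final DMSO for 3 days at 37 °C. Total ATP, a surrogate for cell number, was read by CellTiter-Glo luminescence, with % growth inhibition relative to DMSO-treated wells.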

[3] = tested on: Human melanoma cancer cells (SK-MEL-28); test: Cell growth inhibition assay (CellTiter-Glo), SK-MEL-28; format: cell-based
[4] = tested on: pERK (pERK/tERK); test: Pharmacodynamic effect, pERK/tERK in A375P F11s xenograft tumors; format: in vivo, mice; conditions: Mus musculus, read-out: inhibition of pERK (pERK/tERK)
Procedure: Animals were housed in pathogen free conditions and handled with aseptic technique. […] Detached cells were collected, centrifuged (1500 rpm, 5 min, 4° C.) and rinsed to remove the trypsin solution. Cells were resuspended in PBS without magnesium or calcium and counted. Cells were spun as previously to remove PBS and a single cell suspension was created either in 50% Matrigel: 50% PBS (v:v) or 100% PBS so that a 100 μL subcutaneous injection would deliver the required number of cells per mouse. The A375P F11s melanoma line was injected with Matrigel at 4 million cells per mouse. Tumors were established (˜150-300 mm^3) for all cell lines within 2-4 weeks post-injection.
At 2 h following oral administration of compound mice were euthanized using carbon dioxide. Tumors were carefully excised, homogenized using Medimachine (BD Bioscience) with 1 ml of lysis buffer (25 mM Tris-HCl (pH 7.5), 2 mM EDTA (pH 8.0), 2 mM EGTA (pH 8.0), 1% Triton X-100, 0.1% SDS, 50 mM Na—B—PO4, 2 mM NaVO4, 4 mM Na-Pyr-PO4, 2× phosphatase inhibitor cocktail. Crude homogenate was transferred to a 12 ml polypropylene tube containing 1.5 ml of lysis buffer and kept on ice. Following homogenization of all samples, 1 ml of homogenate was transferred to an eppendorf tube and centrifuged at 14,000 rpm for 15 min at 4° C. Five hundred microliter of clarified lysate was transferred to a new tube, flash frozen and processed for quantitation of pERK and tERK using western blot or Elisa (MSD) assays. […] BioRad dye was added to BSA dilutions and diluted test lysates. […] Comparison to the standard curve provides a relative measurement of protein concentration. […] The gels were transferred onto nitro-cellulose membranes using the iBlot transfer apparatus, which were then blocked and incubated with different primary antibodies overnight at 4° C. Western blots dually probed against pERK and tERK were scanned using LI-COR Odyssey® reader. A ratio of the immunofluorescent density obtained for pERK/tERK is calculated and expressed as a ratio (in percentage) to control untreated samples. For determination of pERK/tERK ratio by ELISA, MesoScale Discovery (MSD) (cat# K15107) plate were used according to manufacturer's instructions. In brief, MSD plates were block with 150 μl/well of blocking buffer for 1 hr before being washed 4 times with 200 μl of washing buffer. Thirty microliter (30 μl) of serially diluted samples was added to wells and plates were incubated overnight at 4° C. under slow agitation (˜500 rpm). Plates were washed 4 times in 200 μl 1× Tris wash buffer and 25 μl detection antibody solution was added to all wells and incubated at room temperature for 1 hr (˜500 rpm). Plates were washed 4 times in 200 μl wash buffer and 150 μl of read buffer was added to all wells. Plates were read on MSD.SI6000. In this assay vehicle and compound treated samples were tested at 4 different dilutions to allow linear range coverage of the assay. From pERK and tERK signal, background (BSA signal) was subtracted and ratio of pERK/tERK determined and normalized to untreated vehicle samples, arbitrarily set at 100%.

[5] = tested on: A375P F11s; test: 3-day proliferation assays, selection of A375P F11s clone; format: cell-based, human; conditions: A375P F11s subclone of A375P
Procedure: Activity of select exemplified compounds was tested in vivo against A375 PF11s (melanoma cell line encoding a B-Raf V600E mutation) xenograft mouse model. The A375P F11s cell line, encoding a mutation for BRAF^V600E, was subcloned from the A375P human melanoma cell line (obtained from ATCC, Cat # CRL-1619) by limiting dilution and selected based on high (90%) sensitivity to the BRAF inhibitor, SB-590885 (commercially available), in 3-day proliferation assays. The selected clone (A375P F11s) was isolated and mutation in B-Raf (T1799A) encoding the V600E amino acid change was reconfirmed.

[6] = B-Raf Activity, Table 1a, highest pIC50 for the one or more runs
[7] = B-Raf pIC50, Table 1b, later runs, average pIC50 for the one or more runs
[8] = COLO 205, 72 h, Table 2a, 3 days incubation, read-out: Activity in Colo205 Tumor Cells
[9] = COLO 205, Table 2b, later runs, average for the one or more runs, categorized, read-out: IC50 for Colo205
[10] = SK-MEL-28, 72 h, Table 3a, 3 days incubation, read-out: Activity in SK-MEL-28 Tumor Cells
[11] = SK-MEL-28, Table 3b, later runs, average for the one or more runs, categorized, read-out: IC50 for SK-MEL-28
[12] = A375P F11s xenograft tumors, single oral dose of 100 mg/kg, 2 h after administration
[13] = Table 1b, later runs, average pIC50 for the one or more runs, read-out: B-Raf pIC50 (converted)

SMILES | IC50 [1, 6] [nM] | IC50 [1, 7] [nM] | IC50 [2, 8] [nM] | IC50 [2, 9] [nM] | IC50 [3, 10] [nM] | IC50 [3, 11] [nM] | inhibition at 100 mg/kg [4, 12] [%] | IC50 [1, 13] [nM] | inhibition at 100 mg/kg ([4]; A375P, po, 2 h) [%] | sensitivity to the BRAF inhibitor in 3-day proliferation assays [5] [%]
Cc1nccc(-c2sc(C(C)(C)C)nc2-c2cccc(NS(=O)(=O)c3cc(F)ccc3F)c2F)n1 [Example 65, N-{3-[2-(1,1-dimethylethyl)-5-(2-methyl-4-pyrimidinyl)-1,3-thiazol-4-yl]-2-fluorophenyl}-2,5-difluorobenzenesulfonamide] | < 100 | ≤ 3.16 | < 100 | < 100 | < 100 | < 100 | ≥ 30 | – | – | –
Cc1nccc(-c2sc(C3CCOCC3)nc2-c2cccc(NS(=O)(=O)c3c(F)cccc3F)c2Cl)n1 [Example 25, N-{2-Chloro-3-[5-(2-methyl-4-pyrimidinyl)-2-(tetrahydro-2H-pyran-4-yl)-1,3-thiazol-4-yl]phenyl}-2,6-difluorobenzenesulfonamide trifluoroacetate] | < 100 | – | 100 to 1000 | 100 to 1000 | < 100 | < 100 | ≥ 30 | 3.16 to 31.6 | – | –
O=S(=O)(Nc1cccc(-c2nc(C3CCOCC3)sc2-c2ccncn2)c1Cl)c1c(F)cccc1F [Example 26, N-{2-Chloro-3-[5-(4-pyrimidinyl)-2-(tetrahydro-2H-pyran-4-yl)-1,3-thiazol-4-yl]phenyl}-2,6-difluorobenzenesulfonamide] | < 100 | ≤ 3.16 | < 100 | < 100 | < 100 | < 100 | ≥ 30 | – | – | –
Nc1nccc(-c2sc(N3CCOCC3)nc2-c2cccc(NS(=O)(=O)c3c(F)cccc3F)c2F)n1 [Example 59, N-{3-[5-(2-Amino-4-pyrimidinyl)-2-(4-morpholinyl)-1,3-thiazol-4-yl]-2-fluorophenyl}-2,6-difluorobenzenesulfonamide] | < 100 | – | 100 to 1000 | 100 to 1000 | 100 to 1000 | 100 to 1000 | ≥ 30 | 3.16 to 31.6 | – | –
Nc1nccc(-c2sc(N3CCOCC3)nc2-c2cccc(NS(=O)(=O)c3ccco3)c2Cl)n1 [Example 24, N-{3-[5-(2-Amino-4-pyrimidinyl)-2-(4-morpholinyl)-1,3-thiazol-4-yl]-2-chlorophenyl}-2-furansulfonamide] | < 100 | ≤ 3.16 | < 100 | 100 to 1000 | < 100 | 100 to 1000 | ≥ 30 | – | – | –
CC(C)(C)c1nc(-c2cccc(NS(=O)(=O)c3c(F)cccc3F)c2F)c(-c2ccnc(N)n2)s1 [Example 58, N-{3-[5-(2-amino-4-pyrimidinyl)-2-(1,1-dimethylethyl)-1,3-thiazol-4-yl]-2-fluorophenyl}-2,6-difluorobenzenesulfonamide] | – | – | < 100 | – | < 100 | – | – | – | ≥ 30 | –
Nc1nccc(-c2sc(C3CCOCC3)nc2-c2cccc(NS(=O)(=O)c3c(F)cccc3F)c2F)n1 [Example 64, N-{3-[5-(2-amino-4-pyrimidinyl)-2-(tetrahydro-2H-pyran-4-yl)-1,3-thiazol-4-yl]-2-fluorophenyl}-2,6-difluorobenzenesulfonamide] | < 100 | ≤ 3.16 | < 100 | < 100 | < 100 | < 100 | ≥ 30 | – | – | –
CN(C)CCOc1ccc(-c2nc(-c3ccncc3)c(-c3ccc4c(c3)CC/C4=N\O)[nH]2)cc1 [SB-590885] | – | – | – | – | – | – | – | – | – | 90
CC(C)(C)c1nc(-c2cccc(NS(=O)(=O)c3cc(F)ccc3F)c2F)c(-c2ccncn2)s1 [Example 66, N-{3-[2-(1,1-Dimethylethyl)-5-(4-pyrimidinyl)-1,3-thiazol-4-yl]-2-fluorophenyl}-2,5-difluorobenzenesulfonamide] | < 100 | ≤ 3.16 | < 100 | < 100 | < 100 | < 100 | ≥ 30 | – | – | –
CC(C)(C)c1nc(-c2cccc(NS(=O)(=O)c3cc(F)ccc3F)c2F)c(-c2ccnc(NCCNC(=O)CO)n2)s1 [Example 98, N-{2-([4-[4-(3-{[(2,5-Difluorophenyl)sulfonyl]amino}-2-fluorophenyl)-2-(1,1-dimethylethyl)-1,3-thiazol-5-yl]-2-pyrimidinyl}amino)ethyl]-2-hydroxyacetamide] | < 100 | ≤ 3.16 | < 100 | < 100 | < 100 | < 100 | – | – | – | –
CC(C)CNc1nccc(-c2sc(N3CCOCC3)nc2-c2cccc(NS(=O)(=O)c3cccnc3)c2F)n1 [Example 45, N-{2-Fluoro-3-[5-{2-[(2-methylpropyl)amino]-4-pyrimidinyl}-2-(4-morpholinyl)-1,3-thiazol-4-yl]phenyl}-3-pyridinesulfonamide] | < 100 | ≤ 3.16 | 100 to 1000 | 100 to 1000 | 100 to 1000 | 100 to 1000 | – | – | – | –
Cc1ccccc1S(=O)(=O)Nc1cccc(-c2nc(C(C)C)sc2-c2ccnc(NCC(C)C)n2)c1F [Example 39, N-[2-Fluoro-3-(2-(1-methylethyl)-5-{2-[(2-methylpropyl)amino]-4-pyrimidinyl}-1,3-thiazol-4-yl)phenyl]-2-methylbenzenesulfonamide] | < 100 | – | 100 to 1000 | 100 to 1000 | 100 to 1000 | 100 to 1000 | – | 3.16 to 31.6 | – | –
CC(C)(C)c1nc(-c2cccc(NS(=O)(=O)C3CCCCC3)c2F)c(-c2ccnc(N)n2)s1 [Example 63, N-{3-[5-(2-Amino-4-pyrimidinyl)-2-(1,1-dimethylethyl)-1,3-thiazol-4-yl]-2-fluorophenyl}cyclohexanesulfonamide] | 100 to 1000 | 31.6 to 1000 | 100 to 1000 | 100 to 1000 | 100 to 1000 | 100 to 1000 | – | – | – | –
CC(=O)NCCNc1nccc(-c2sc(C(C)(C)C)nc2-c2cccc(NS(=O)(=O)c3cc(F)ccc3F)c2F)n1 [Example 197] | < 100 | ≤ 3.16 | < 100 | < 100 | < 100 | < 100 | – | – | – | –
Nc1nccc(-c2sc(N3CCOCC3)nc2-c2cccc(NS(=O)(=O)c3cc(F)ccc3F)c2Cl)n1 [Example 156] | < 100 | ≤ 3.16 | < 100 | < 100 | < 100 | < 100 | ≥ 30 | – | – | –
